Data taken from patent US8207136B2, “Nucleoside compounds and methods of use thereof” (The Board of Trustees of the University of Illinois, priority 2005, dated 2012).

Assays:
p53, p21, hdm2, survivin = assay: Immunoblot of p53, p21, hdm2 and survivin levels in cancer cell lines; assay type: cell-based, human
Procedure: (§1) Immunoblotting was performed as described with antibodies specific for p53 (sc-126 HRP; Santa Cruz), hdm2 (sc-965; Santa Cruz), p21 (556431; BD Pharmingen), Sp1 (sc-59; Santa Cruz), survivin (sc-10811; Santa Cruz), phospho RNA polymerase II (4735; Cell Signaling), total RNA polymerase II (8WG16; a gift from Dr. Schlegel, University of Illinois at Chicago), α-tubulin (T9026; Sigma), cleaved caspase-3 (9664; Cell Signaling), caspase-9 (9502; Cell Signaling) and β-actin (A5441; Sigma) antibodies.
In order to find small molecule transcriptional inhibitors of p21, we generated LIM1215 colon cancer cells, carrying lacZ under the control of p21 promoter, as a screening system for testing ˜2000 structurally diverse compounds (Diversity Set) obtained from National Cancer Institute (NCI). […] To determine if these effects mediated by ARC were dose-dependent, we treated HCT-116 colon carcinoma cells with different concentrations of ARC.
In order to evaluate the extent to which the ARC-mediated repression of p21, hdm2 and survivin are p53-dependent, a pair of isogenic colon cancer cell lines was employed differing only in their p53 status—HCT-116 wild-type and HCT-116-p53^−/− cells (gift from Dr. Bert Vogelstein).

[1] = system: LIM1215 colon cancer, AGS gastric cancer and HepG2 liver cancer cells; assay: Cleaved caspase-3 immunoblot in cancer cell lines of different origin; assay type: cell-based, human; settings: 48 hours
Procedure: as §1

Akt = Akt Ser473 phosphorylation immunoblot in mAkt-overexpressing cells; assay type: cell-based; settings: Rat1a-mAkt and MCF7-mAkt cells, 24 hours
Procedure: FIG. 9. ARC interferes with the Akt pathway by inhibiting phosphorylation of Akt. Rat1a and MCF-7 cells overexpressing myristoylated-Akt (mAkt) were treated with the indicated concentration of ARC for 24 hours, after which the cell lysates were used for immunoblotting with total and phospho-Ser473 specific Akt antibodies.
Another survival pathway that protects mitochondrial integrity is the Akt (AKT8 virus oncogene cellular homolog) pathway. In order to see if this pathway is affected, two different cell lines that overexpress myrisotylated-Akt (Rat1a-mAkt, and MCF7-mAkt) were used. Myristolated-Akt is a membrane-targeted Akt, a kinase involved in anti-apoptotic signaling.

[2] = system: HIV Tat-mediated transcription; assay: HIV Tat-mediated transcription in HeLa MAGI cells; assay type: cell-based, human immunodeficiency virus (HIV); settings: 18 hours
Procedure: FIG. 10. ARC has antiviral activity against HIV (human immunodeficiency virus) in a cell culture model. HeLa MAGI cells were infected with Adeno-Tat and treated with different amounts of ARC for 18 hours after which, MTT was added to measure cell viability and B-Gal expression was measured by ONPG assay. B-Gal expression is indicative of HIV Tat transactivation ability. Assays were done in quadruplicates.

P-TEFb (Cdk9/Cyclin T1) = target: T1, P-TEFb (Cdk9/Cyclin T1) (Homo sapiens, UniProt P50750); assay: P-TEFb kinase assay with GST-CTD as substrate; assay type: biochemical; settings: 30° C., 1 hour
T1 construct: gift from Dr. Nekhai (Howard University)
T1 sequence (P50750 whole entry, species assumed): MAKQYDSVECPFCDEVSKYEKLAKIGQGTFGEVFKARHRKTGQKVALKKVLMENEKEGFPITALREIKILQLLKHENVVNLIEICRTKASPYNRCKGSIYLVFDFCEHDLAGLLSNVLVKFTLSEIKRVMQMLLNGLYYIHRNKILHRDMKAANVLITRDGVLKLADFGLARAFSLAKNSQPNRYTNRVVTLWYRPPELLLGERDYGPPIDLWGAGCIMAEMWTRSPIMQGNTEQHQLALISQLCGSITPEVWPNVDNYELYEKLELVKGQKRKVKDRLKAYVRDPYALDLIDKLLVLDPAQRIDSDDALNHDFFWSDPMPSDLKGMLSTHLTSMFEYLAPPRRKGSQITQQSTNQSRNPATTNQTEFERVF
T1 sequence (O60563 whole entry partner, species assumed): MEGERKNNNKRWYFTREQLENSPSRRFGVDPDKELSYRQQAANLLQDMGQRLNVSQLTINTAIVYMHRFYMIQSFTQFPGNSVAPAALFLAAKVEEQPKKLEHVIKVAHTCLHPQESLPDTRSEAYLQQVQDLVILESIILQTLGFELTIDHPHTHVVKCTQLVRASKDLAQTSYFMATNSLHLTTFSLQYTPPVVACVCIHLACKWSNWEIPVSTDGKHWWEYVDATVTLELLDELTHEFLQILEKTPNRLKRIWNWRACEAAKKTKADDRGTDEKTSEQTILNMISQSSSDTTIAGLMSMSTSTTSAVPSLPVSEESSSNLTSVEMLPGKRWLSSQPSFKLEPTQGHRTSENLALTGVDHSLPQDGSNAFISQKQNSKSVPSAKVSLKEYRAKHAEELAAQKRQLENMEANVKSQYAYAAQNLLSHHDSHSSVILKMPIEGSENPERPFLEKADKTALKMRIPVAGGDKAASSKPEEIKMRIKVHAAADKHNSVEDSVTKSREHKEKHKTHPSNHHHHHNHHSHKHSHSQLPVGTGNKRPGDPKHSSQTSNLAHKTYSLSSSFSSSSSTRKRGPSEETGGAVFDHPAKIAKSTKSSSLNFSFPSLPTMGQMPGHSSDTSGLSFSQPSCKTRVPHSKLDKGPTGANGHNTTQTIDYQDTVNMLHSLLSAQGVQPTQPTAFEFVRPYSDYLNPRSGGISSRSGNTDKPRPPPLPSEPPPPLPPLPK
Procedure: Purified P-TEFb (Cdk9/Cyclin T1) protein and GST-CTD (GST-tagged C-terminal domain of RNA polymerase II) expression plasmid were gifts from Dr. Nekhai (Howard University). GST-CTD protein was expressed in BL21 E. coli (Stratagene) and purified using a GST protein purification kit (Amersham Biosciences). The kinase assay was performed at 30° C. for 1 hour in the presence of P-TEFb with or without the addition of ARC. The phosphorylation levels of GST-CTD were detected with anti-phospho RNA polymerase II antibody (4735; Cell Signaling).
It is known that DRB and flavopiridol inhibit transcription by blocking the kinase activity of P-TEFb, which in turn leads to decreased phosphorylation of RNA polymerase II C-terminal domain (CTD). To determine if ARC operates by a similar mechanism, a kinase assay was performed with purified P-TEFb using GST-CTD (GST tagged C-terminal domain of RNA polymerase II) as the substrate. […] To evaluate this effect in vivo, HCT-116 cells were treated with ARC for 3 hours and analyzed levels of phospho-RNA polymerase II by immunoblotting. While the total amount of RNA polymerase II remained unchanged, phosphorylation of the RNA polymerase II CTD decreased upon ARC treatment (FIG. 2D), consistent with the in vitro kinase assay.

[3] = system: MCF-7 breast cancer cells; assay: Apoptosis assays in MCF-7 breast cancer cells; assay type: cell-based, human
Procedure: as §1
Apoptosis was detected either by DAPI (4′,6-diamidino-2-phenylindole) staining or by Flow Cytometry after PI (Propidium Iodide) staining. For DAPI staining, all treatments (DMSO or ARC) were done in triplicates in 6-well plates and cells were stained with DAPI and visualized by fluorescent microscopy. Four random fields for each sample were photographed and at least 500 cells per field were counted to estimate apoptosis. The data is represented as mean±Standard deviation (sd).
In order to further characterize ARC with respect to its apoptotic potential, cell lines derived from cancers of different origin were utilized. MCF-7 breast cancer cells underwent apoptosis (around 45% and 55%, respectively, with 10 and 20 μM of ARC) after 24 hours of treatment (FIGS. 5A and 5B). […] To evaluate the extent to which ARC-mediated apoptosis is p53-dependent, an MCF-7 cell line that stably expresses a short hairpin RNA (shRNA) targeting p53 (MCF-7-p53si) was used.

[4] = cancer cell lines of different origin, 10 μM, 24 hours

## NNc1c(C(N)=O)c2c(N)ncnc2n1[C@@H]1O[C@H](CO)[C@@H](O)[C@H]1O [ARC, 4-amino-6-hydrazino-7-beta-D-ribofuranosyl-7H-pyrrolo[2,3-d]-pyrimidine-5-carboxamide]
p53, p21, hdm2, survivin; HCT-116-p53+/+ versus HCT-116-p53−/− cells
  p21, hdm2 and survivin levels, p53 dependence: repressed irrespective of their p53 status
p53, p21, hdm2, survivin; HCT-116 colon carcinoma cells, increasing amounts, 24 hours
  p53, p21 and hdm2 levels, dose dependence: increased p53 but simultaneously repressed its target genes p21 and hdm2 in a dose-dependent manner
p53, p21, hdm2, survivin; MCF-7 cells, ARC alone
  p53 levels in nuclear extracts: highly induced
p53, p21, hdm2, survivin; [4]
  hdm2 levels: downregulate hdm2
  p21 levels: repress p21 levels
  p53 levels: increased p53 levels
  survivin levels: downregulate
[1]; HepG2 with stable knock-down of p53, 20 μM
  cleavage of caspase-3: showed cleavage of caspase-3
[1]; LIM1215, AGS and HepG2 cells, 20 μM
  cleavage of caspase-3: cleavage of caspase-3 were detected
Akt
  Ser473 phosphorylation on Akt: decrease in Ser473 phosphorylation on Akt
[2]; HeLa MAGI cells infected with Adeno-Tat
  HIV Tat-mediated transcription (B-Gal expression): efficiently inhibited HIV Tat-mediated transcription in a dose-dependent manner
[2]; HeLa MAGI cells
  rate of transcription versus cell viability (MTT): affected more than the viability of cells
P-TEFb (Cdk9/Cyclin T1)
  phosphorylation of GST-CTD by P-TEFb: potently decreased the phosphorylation of GST-CTD
[3]; 10 μM, 24 hours
  apoptosis (DAPI staining): around 45%
[3]; 20 μM, 24 hours
  apoptosis (DAPI staining): ~55%
[3]; MCF-7, 24 hours
  cleavage of caspase-9: cleavage of caspase-9 upon ARC treatment was observed
[3]; MCF-7-p53si cells (shRNA targeting p53), 24 hours
  cleavage of caspase-9: Cleavage of caspase-9 was detected
